Measurements as given in paper PMC12040169 (PLOS Biology, 2025).

Test: in vitro
Conditions: human, hela cells, % viability

SMILES	viability at 28.5 h, 10 µM [%]
COc1ccc(CN2C(=S)N(c3ccc(OC)cc3)[C@H]3[C@@H]2[C@H]2OC(=O)[C@@H]3C[C@H]2O)cc1 [CBK288934]	85.4
COc1ccc(CN2C(=S)N(c3ccc(Cl)cc3)[C@H]3[C@@H]2[C@H]2OC(=O)[C@@H]3C[C@H]2O)cc1 [CBK288935]	99.8
COc1ccc(CN2C(=S)N(c3ccccc3)[C@H]3[C@@H]2[C@H]2OC(=O)[C@@H]3C[C@H]2O)cc1 [CBK288937]	108
CC(C)CN1C(=S)N(Cc2ccc(-c3ccccn3)cc2)[C@H]2[C@H]3OC(=O)[C@H](C[C@H]3O)[C@H]21 [CBK288938]	113
COc1ccc(N2C(=S)N(CC3CCCCC3)[C@H]3[C@H]4OC(=O)[C@H](C[C@H]4O)[C@H]32)cc1 [CBK288939]	108
COc1ccc(CN2/C(=N/c3ccccc3)S[C@H]3[C@@H]2[C@@H](O)[C@H](O)C[C@@H]3C(N)=O)cc1 [CBK288941]	102
O=C([C@@H]1C[C@@H](O)[C@H](O)[C@@H]2NC(=S)N(c3ccc4c(c3)OCO4)[C@@H]21)N1CCCCC1 [CBK288945]	87.3
CN(Cc1ccccc1)C(=O)[C@H]1C[C@@H](O)[C@H](O)[C@@H]2N=C(Nc3ccc(Cl)cc3)S[C@@H]21 [CBK288949]	105
COc1ccc(NC2=N[C@H]3[C@@H](O)[C@H](O)C[C@H](C(=O)N(C)Cc4ccccc4)[C@H]3S2)cc1 [CBK288950]	96.7
Cc1ccc(NC2=N[C@H]3[C@@H](O)[C@H](O)C[C@H](C(=O)N4CCCCC4)[C@H]3S2)cc1 [CBK288951]	94.7
OCc1ccc(CN2Cc3nc[nH]c3C[C@H]2c2nc(Cc3ccccc3)no2)o1 [CBK288955]	93.8
Cc1ccc(-c2noc([C@@H]3Cc4[nH]cnc4CN3C(=O)c3cccs3)n2)cc1 [CBK288957]	82.2
Cc1ccc(-c2noc([C@@H]3Cc4[nH]cnc4CN3C(=O)CCC(=O)O)n2)cc1 [CBK288958]	96.3
O=C(Nc1ccc(Cl)cc1)N1Cc2nc[nH]c2C[C@H]1c1nc(-c2ccncc2)no1 [CBK288964]	91.4
COc1ccc(C(=O)N2Cc3nc[nH]c3C[C@H]2c2nc(-c3ccc(OC)cc3)no2)cc1 [CBK288966]	107
COc1ccc(-c2noc([C@@H]3Cc4[nH]cnc4CN3C(=O)CCC(=O)O)n2)cc1 [CBK288967]	90.3
COc1ccc(-c2noc([C@@H]3Cc4[nH]cnc4CN3C(=O)Nc3ccc(C)cc3)n2)cc1 [CBK288968]	92.9
CC(C)c1noc([C@@H]2Cc3[nH]cnc3CN2C(=O)Nc2ccccc2)n1 [CBK288969]	86.5
CC(=O)c1ccc(NC(=O)N2Cc3nc[nH]c3C[C@H]2c2nc(-c3ccc(F)cc3)no2)cc1 [CBK288971]	83.6
CCNC(=O)N1Cc2nc[nH]c2C[C@H]1C(=O)NCc1ccc(OC)cc1 [CBK288973]	115
CN1Cc2nc[nH]c2C[C@H]1C(=O)NCc1ccco1 [CBK288979]	88
COc1ccc(CN2Cc3nc[nH]c3C[C@H]2C(=O)N2CCC(Cc3ccccc3)CC2)cc1 [CBK288980]	110
COC(=O)[C@@H]1Cc2ncn(Cc3ccc(Cl)cc3)c2CN1C(=O)c1ccc(OC)cc1 [CBK288983]	84.2
COC(=O)[C@@H]1Cc2ncn(C(C)C)c2CN1S(=O)(=O)c1ccc(C#N)cc1 [CBK288986]	84

SMILES	viability at 28.5 h, 10 µM [%]
COC(=O)[C@@H]1Cc2ncn(C(C)C)c2CN1C(=O)c1ccccc1 [CBK288987]	82.2
COC(=O)[C@@H]1Cc2ncn(C(C)C)c2CN1C(=O)C1CCCCC1 [CBK288989]	98.9
COC(=O)[C@@H]1Cc2ncn(C)c2CN1S(=O)(=O)c1ccc(C#N)cc1 [CBK288993]	83.9
O=C(Nc1ccccc1)N1Cc2nc[nH]c2C[C@H]1c1nc(-c2ccccc2)no1 [CBK288997]	84.3
O=C(NC1CCCCC1)N1Cc2nc[nH]c2C[C@H]1c1nc(-c2ccc3c(c2)OCO3)no1 [CBK289000]	95.7
CC(C)NC(=O)N1Cc2nc[nH]c2C[C@H]1c1nc(-c2ccc3c(c2)OCO3)no1 [CBK289001]	94.5
CC(C)NC(=O)CC[C@@H]1CNC(=O)[C@@H]2C[C@H](NC(=O)c3ccccc3)CN12 [CBK289002]	90.9
O=C(Nc1cccc(Cl)c1)N[C@H]1C[C@H]2C(=O)NC[C@@H](CCC(=O)N3CCCC3)N2C1 [CBK289003]	96.1
O=C(CC[C@@H]1CNC(=O)[C@@H]2C[C@H](NC(=O)C3CC3)CN12)Nc1ccccc1 [CBK289006]	113
O=C(N[C@H]1C[C@H]2C(=O)NC[C@@H](CCC(=O)N3CCCCC3)N2C1)c1cccc(F)c1 [CBK289011]	85
CN1CCN(C(=O)CC[C@@H]2CNC(=O)[C@@H]3C[C@H](NC(=O)c4cccs4)CN23)CC1 [CBK289013]	124
CN1CCN(C(=O)CC[C@@H]2CNC(=O)[C@@H]3C[C@H](NC(=O)c4ccccc4)CN23)CC1 [CBK289014]	86.7
CN1CCN(C(=O)CC[C@@H]2CNC(=O)[C@@H]3C[C@H](NC(=O)c4cccc(F)c4)CN23)CC1 [CBK289015]	92.2
COC(=O)CC[C@H]1CNC(=O)[C@@H]2[C@@H](CCN2C)N1C [CBK289020]	95.4
CN1[C@@H](CCC(=O)NCc2ccc(F)cc2)CNC(=O)[C@@H]2[C@H]1CCN2C1CCOCC1 [CBK289023]	106
CC(C)N1CC[C@@H]2[C@H]1C(=O)NC[C@H](CCC(=O)NCc1ccc(F)cc1)N2C [CBK289024]	91.4
CC(C)N1CC[C@@H]2[C@H]1C(=O)NC[C@H](CCC(=O)Nc1ccccc1)N2C [CBK289030]	86.1
CN1[C@@H](CCC(=O)N2CCN(c3ccccn3)CC2)CNC(=O)[C@H]2NCC[C@H]21 [CBK289031]	95.2
C#CCNC(=O)CC[C@H]1CNC(=O)[C@@H]2[C@@H](CCN2Cc2cccs2)N1C [CBK289033]	103
C#CCNC(=O)CC[C@H]1CNC(=O)[C@@H]2[C@@H](CCN2Cc2ccccc2)N1C [CBK289034]	101
C#CCNC(=O)CC[C@H]1CNC(=O)[C@@H]2[C@@H](CCN2CC(C)(C)C)N1C [CBK289035]	95.1
COC[C@H]1CCCN1C(=O)CC[C@H]1CNC(=O)[C@@H]2[C@@H](CCN2C2CCOCC2)N1C [CBK289037]	90.9
CC1(C)C[C@H](NC2CCOCC2)[C@@]2(CCC(=O)N3CCOCC3)CC[C@](C)(O)C[C@@H]12 [CBK289041]	91.6
CC1(C)C[C@H](NC(=O)c2cccs2)[C@@]2(CCC(=O)N3CCCC3)CC[C@](C)(O)C[C@@H]12 [CBK289042]	122

SMILES	viability at 28.5 h, 10 µM [%]
COCC(=O)N[C@H]1CC(C)(C)[C@@H]2C[C@@](C)(O)CC[C@]12CCC(=O)N1CCCC1 [CBK289043]	88.4
CC1(C)C[C@H](NC(=O)C2CC2)[C@@]2(CCC(=O)N3CCCC3)CC[C@](C)(O)C[C@@H]12 [CBK289044]	88.1
CC1(C)C[C@H](NC(=O)c2ccccc2)[C@@]2(CCC(=O)NC3CC3)CC[C@](C)(O)C[C@@H]12 [CBK289045]	92.6
CC1=C[C@@H](CNC(=O)NC(C)C)[C@H](C(C)C)C[C@H]1CC(=O)N1CCN(C)CC1 [CBK289047]	100
CC1=C[C@@H](CNC(=O)Nc2ccccc2)[C@H](C(C)C)C[C@H]1CC(=O)N1CCN(C)CC1 [CBK289048]	121
CC1=C[C@@H](CNS(C)(=O)=O)[C@H](C(C)C)C[C@H]1CC(=O)N1CCOCC1 [CBK289050]	89.3
CCNC(=O)NC[C@@H]1C=C(C)[C@H](CC(=O)N2CCOCC2)C[C@H]1C(C)C [CBK289051]	102
COc1ccc(CN2C(=O)CO[C@H]3CN(c4nccc(C)n4)C[C@H]32)cc1 [CBK289056]	86.1
CC(=O)Nc1ccc([C@@H](O)[C@H]2COCC(=O)N2C)cc1 [CBK289059]	97.7
O=C(Nc1ccc([C@@H](O)[C@H]2COCC(=O)N2Cc2ccc(F)cc2)cc1)c1ccccc1 [CBK289061]	86.1
O=C(N[C@@H]1CNCCC[C@H]1O)c1ccc(OCc2ccccc2)cc1 [CBK289064]	100
O=C(N[C@@H]1CNCCC[C@H]1O)c1ccc(OCCN2CCOCC2)cc1 [CBK289065]	98.3
CCNC(=O)N1CCC[C@@H](O)[C@H](NC(=O)c2ccc(OC)cc2)C1 [CBK289066]	88.2
COc1ccc(C(=O)N2C[C@@H]3C[C@H](C2)c2ccc(NC(=O)C4CC4)c(=O)n2C3)cc1 [CBK289072]	90
N#Cc1ccc(C(=O)Nc2ccc3n(c2=O)C[C@H]2C[C@@H]3CN(C(=O)c3ccccc3)C2)cc1 [CBK289073]	109
O=C(Nc1ccc2n(c1=O)C[C@H]1C[C@@H]2CN(C(=O)NC2CCCCC2)C1)c1cnccn1 [CBK289076]	86.8
O=C(Nc1ccc2n(c1=O)C[C@H]1C[C@@H]2CN(c2ncccn2)C1)c1ccccc1 [CBK289077]	86.4
O=C(NCc1ccc2c(c1)OCO2)[C@H]1CN2CCC1C[C@@H]2Cn1cc(-c2ccccn2)nn1 (stereo partly drawn) [CBK289082]	102
Nc1cccc(-c2cn(C[C@H]3CC4CCN3C[C@@H]4C(=O)NC3CCCCC3)nn2)c1 (stereo partly drawn) [CBK289083]	84.2
COc1ccc(-c2cn(C[C@H]3CC4CCN3C[C@@H]4C(=O)NC3CCCCC3)nn2)cc1 (stereo partly drawn) [CBK289084]	107
CC(C)(C)c1cn(C[C@H]2CC3CCN2C[C@@H]3C(=O)NC2CCCCC2)nn1 (stereo partly drawn) [CBK289085]	83.9
O=C(NCc1ccc(F)cc1)[C@H]1CN2CCC1C[C@@H]2Cn1cc(C2(O)CCCC2)nn1 (stereo partly drawn) [CBK289093]	109
CCCS(=O)(=O)NC[C@H]1C[C@@H]2CCN1C[C@@H]2c1cc(-c2ccccc2)nn1C [CBK289095]	93.8
Cn1nc(-c2ccccc2)cc1[C@H]1CN2CC[C@H]1C[C@@H]2CNC(=O)NCc1ccccc1 [CBK289098]	104
